In patent US20230167073A1 (Teijin Pharma Limited, priority 2020, published 2023):
Like-named read-outs stand apart in the source and are kept apart here.

Target: T1, Human TRPC6 (Homo sapiens, UniProt Q9Y210)
T1 construct: expressed in transfected cells
T1 sequence (Q9Y210 1-931): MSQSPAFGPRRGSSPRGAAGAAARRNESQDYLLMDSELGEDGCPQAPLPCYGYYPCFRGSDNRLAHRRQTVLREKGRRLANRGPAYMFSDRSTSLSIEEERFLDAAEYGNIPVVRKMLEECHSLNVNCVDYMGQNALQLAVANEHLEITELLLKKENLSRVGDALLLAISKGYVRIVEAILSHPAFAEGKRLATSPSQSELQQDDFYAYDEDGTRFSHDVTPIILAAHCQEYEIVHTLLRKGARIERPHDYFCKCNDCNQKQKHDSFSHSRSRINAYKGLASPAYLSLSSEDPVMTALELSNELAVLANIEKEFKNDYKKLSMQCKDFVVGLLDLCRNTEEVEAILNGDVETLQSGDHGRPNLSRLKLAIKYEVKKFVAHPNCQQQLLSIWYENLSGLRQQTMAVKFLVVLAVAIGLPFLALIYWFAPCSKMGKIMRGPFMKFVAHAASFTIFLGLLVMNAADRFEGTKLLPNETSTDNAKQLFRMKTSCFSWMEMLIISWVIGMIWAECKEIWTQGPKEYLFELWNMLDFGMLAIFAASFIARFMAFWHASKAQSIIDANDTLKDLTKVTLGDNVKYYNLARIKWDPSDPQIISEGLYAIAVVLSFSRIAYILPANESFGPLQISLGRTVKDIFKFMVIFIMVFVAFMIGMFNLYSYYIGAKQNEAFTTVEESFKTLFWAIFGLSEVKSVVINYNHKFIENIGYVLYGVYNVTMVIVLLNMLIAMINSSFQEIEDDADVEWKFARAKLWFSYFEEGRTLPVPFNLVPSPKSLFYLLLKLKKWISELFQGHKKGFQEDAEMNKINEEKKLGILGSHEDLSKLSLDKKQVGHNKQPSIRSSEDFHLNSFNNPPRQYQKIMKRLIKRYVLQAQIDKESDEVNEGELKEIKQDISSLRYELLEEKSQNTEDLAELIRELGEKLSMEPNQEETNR
Experiment: Evaluation of TRPC6 channel inhibitory activity (1), FLIPR Calcium 5 Assay Kit, OAG stimulation (Compound Nos. 1-1293)
Type: cell-based
How it was run: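 Readout is pIC50 from four-parameter logistic fitting of inhibition of the OAG-evoked (30 μM final) fluorescence calcium signal. Human TRPC6 stable cells are dye-loaded with probenecid, and compound is applied 20 min ahead of agonist.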

[1] = Human TRPC6 stably-expressing cells, OAG 30 μM, FLIPR Calcium 5 Assay Kit, read-out: Inhibitory activity (pIC50 class) (converted)

SMILES | IC50 [1] [nM] | IC50 [nM]
Cc1cc(Oc2cc(C#N)ccc2-c2ncc(CN)cn2)cc(N2C3CCC2CC3)n1 [compound 826, 4-[5-(aminomethyl)pyrimidin-2-yl]-3-[2-(7-azabicyclo[2.2.1]heptan-7-yl)-6-methylpyridin-4-yl]oxybenzonitrile] | – | < 10
Cn1nc(-c2ccccn2)cc1Oc1cc(C#N)ccc1-c1ccc(C(O)CN)cn1 (centres unmarked) [Compound 249, 4-[5-(2-amino-1-hydroxyethyl)pyridin-2-yl]-3-(2-methyl-5-pyridin-2-ylpyrazol-3-yl)oxybenzonitrile] | < 10 | –
Cn1nc(C2CCOCC2)cc1Oc1cc(C#N)ccc1-c1ccc(CN)cn1 [compound 440, 4-[5-(aminomethyl)pyridin-2-yl]-3-[2-methyl-5-(oxan-4-yl)pyrazol-3-yl]oxybenzonitrile] | < 10 | –
CC(C)n1nc(-c2ccccc2)cc1Oc1cc(C#N)ccc1-c1ccc([C@@H](O)CN)cn1 [compound 383, 4-[5-[(1R)-2-amino-1-hydroxyethyl]pyridin-2-yl]-3-(5-phenyl-2-propan-2-ylpyrazol-3-yl)oxybenzonitrile] | < 10 | –
Cn1nc(C2CC2)c(F)c1Oc1cc(C#N)ccc1-c1ncc(CCN)cn1 [compound 359, 4-[5-(2-aminoethyl)pyrimidin-2-yl]-3-(5-cyclopropyl-4-fluoro-2-methylpyrazol-3-yl)oxybenzonitrile] | 10 to 1000 | –
CCN(CC)c1cc(Oc2cc(C#N)ccc2-c2ncc([C@H](F)CN)cn2)n(C)n1 [compound 913, 4-[5-[(1S)-2-amino-1-fluoroethyl]pyrimidin-2-yl]-3-[5-(diethylamino)-2-methylpyrazol-3-yl]oxybenzonitrile] | < 10 | –
Cc1sc(N2CCOCC2)nc1C(=O)c1cc(C#N)ccc1-c1ncc(CCN)cn1 [compound 1070, 4-[5-(2-aminoethyl)pyrimidin-2-yl]-3-(5-methyl-2-morpholin-4-yl-1,3-thiazole-4-carbonyl)benzonitrile] | > 1000 | –
N#Cc1ccc(-c2ncc(CN)cn2)c(Sc2nnc(N3CCOCC3)s2)c1 [compound 1271, 4-[5-(aminomethyl)pyrimidin-2-yl]-3-[(5-morpholin-4-yl-1,3,4-thiadiazol-2-yl)sulfanyl]benzonitrile] | > 1000 | –
Cc1cc(Oc2cc(C#N)ccc2-c2ncc(CCN)cn2)cc(N2CCN(C)C(=O)C2)n1 [compound 465, 4-[5-(2-aminoethyl)pyrimidin-2-yl]-3-[2-methyl-6-(4-methyl-3-oxopiperazin-1-yl)pyridin-4-yl]oxybenzonitrile] | > 1000 | –
N#Cc1ccc(-c2ccc(CCN)cc2)c(Oc2cnnc(-c3ccccc3F)c2)c1 [Compound 116, 4-[4-(2-aminoethyl)phenyl]-3-[6-(2-fluorophenyl)pyridazin-4-yl]oxybenzonitrile] | 10 to 1000 | –
Cc1nc(Oc2cc(C#N)ccc2-c2ncc(CCN)cn2)cc(N2CCC[C@H]2C#N)n1 [compound 674, (2S)-1-[6-[2-[5-(2-aminoethyl)pyrimidin-2-yl]-5-cyanophenoxy]-2-methylpyrimidin-4-yl]pyrrolidine-2-carbonitrile] | 10 to 1000 | –
COCCOc1cc(Oc2cc(C#N)ccc2-c2ncc(CCN)cn2)nc(C)n1 [compound 890, 4-[5-(2-aminoethyl)pyrimidin-2-yl]-3-[6-(2-methoxyethoxy)-2-methylpyrimidin-4-yl]oxybenzonitrile] | 10 to 1000 | –
Cc1nc(Oc2cc(C#N)ccc2-c2ncc(CCN)cn2)cc(N2CCCC2=O)n1 [compound 880, 4-[5-(2-aminoethyl)pyrimidin-2-yl]-3-[2-methyl-6-(2-oxopyrrolidin-1-yl)pyrimidin-4-yl]oxybenzonitrile] | 10 to 1000 | –

Continued, in another order:

IC50 [1] [nM] | SMILES | IC50 [nM]
< 10 | N#Cc1ccc(-c2ncc(CCN)cn2)c(Cn2cc(C3CCCCC3)nn2)c1 [compound 1186, 4-[5-(2-aminoethyl)pyrimidin-2-yl]-3-[(4-cyclohexyltriazol-1-yl)methyl]benzonitrile] | –
10 to 1000 | COCCCN(C)c1cc(Oc2cc(C#N)ccc2-c2ncc(CCN)cn2)n(C)n1 [compound 800, 4-[5-(2-aminoethyl)pyrimidin-2-yl]-3-[5-[3-methoxypropyl(methyl)amino]-2-methylpyrazol-3-yl]oxybenzonitrile] | –
10 to 1000 | Cc1nc(Oc2cc(C#N)ccc2-c2ncc([C@H](O)CN)cn2)cc(N2C[C@@H](C)O[C@@H](C)C2)n1 [compound 524, 4-[5-[(1S)-2-amino-1-hydroxyethyl]pyrimidin-2-yl]-3-[6-[(2S,6R)-2,6-dimethylmorpholin-4-yl]-2-methylpyrimidin-4-yl]oxybenzonitrile] | –
> 1000 | N#Cc1ccc(-c2ccc(CCN)cc2)c(Oc2cnnc(OCC(F)(F)F)c2)c1 [Compound 109, 4-[4-(2-aminoethyl)phenyl]-3-[6-(2,2,2-trifluoroethoxy)pyridazin-4-yl]oxybenzonitrile] | –
> 1000 | N#Cc1ccc(-c2ncc(CN)cn2)c(Oc2nnc(Br)s2)c1 [compound 700, 4-[5-(aminomethyl)pyrimidin-2-yl]-3-[(5-bromo-1,3,4-thiadiazol-2-yl)oxy]benzonitrile] | –
10 to 1000 | CCC(OC)c1cn(Cc2cc(C#N)ccc2-c2ncc(CCN)cn2)c(C)n1 (centres unmarked) [compound 1142, 4-[5-(2-aminoethyl)pyrimidin-2-yl]-3-[[4-(1-methoxypropyl)-2-methylimidazol-1-yl]methyl]benzonitrile] | –
< 10 | Cn1nc(-c2cccc(F)c2)cc1Oc1cc(C#N)ccc1-c1ccc(CCN)cn1 [Compound 199, 4-[5-(2-aminoethyl)pyridin-2-yl]-3-[5-(3-fluorophenyl)-2-methylpyrazol-3-yl]oxybenzonitrile] | –
> 1000 | Cc1cc(Sc2cc(C#N)ccc2-c2ncc(CN)cn2)cc(N2CCOCC2)n1 [compound 1261, 4-[5-(aminomethyl)pyrimidin-2-yl]-3-(2-methyl-6-morpholin-4-ylpyridin-4-yl)sulfanylbenzonitrile] | –
10 to 1000 | Cc1nc(C(C)C)cn1Cc1cc(C#N)ccc1-c1ncc(CCN)cn1 [compound 1171, 4-[5-(2-aminoethyl)pyrimidin-2-yl]-3-[(2-methyl-4-propan-2-ylimidazol-1-yl)methyl]benzonitrile] | –
> 1000 | CN(C)c1nc(-c2ccc(C#N)cc2Oc2cc(-c3ccccn3)nn2C)nc2c1CNCC2 [compound 762, 4-[4-(dimethylamino)-5,6,7,8-tetrahydropyrido[4,3-d]pyrimidin-2-yl]-3-(2-methyl-5-pyridin-2-ylpyrazol-3-yl)oxybenzonitrile] | –
> 1000 | N#Cc1ccc(-c2ccc(CCN)cc2)c(Cn2cnc(-n3cnnn3)c2)c1 [compound 1123, 4-[4-(2-aminoethyl)phenyl]-3-[[4-(tetrazol-1-yl)imidazol-1-yl]methyl]benzonitrile] | –
> 1000 | Cc1cc(Oc2cc(C#N)ccc2-c2ccc(C[C@H](N)C(=O)O)cc2)cc(N2CCOCC2)n1 [compound 435, (2S)-2-amino-3-[4-[4-cyano-2-(2-methyl-6-morpholin-4-ylpyridin-4-yl)oxyphenyl]phenyl]propanoic acid] | –
10 to 1000 | Cc1nc(Oc2cc(C#N)ccc2-c2ncc(CCN)cn2)cc(-c2nccs2)n1 [compound 598, 4-[5-(2-aminoethyl)pyrimidin-2-yl]-3-[2-methyl-6-(1,3-thiazol-2-yl)pyrimidin-4-yl]oxybenzonitrile] | –
